According to patent US7629470B2, “Formation of tetra-substituted enamides and stereoselective reduction thereof” (Merck & Co., Inc., priority 2004, dated 2009):

Test: Solubility of chiral amide in IPA
Type: physicochemical
Conditions: organic solvent or mixture; in IPA (isopropyl alcohol); grams of chiral amide per liter of solvent; concentration up to 45° C. under vacuum
Description: After the hydrogenation was complete (Example 8), 64.9 g of solution was concentrated to 16.9 g up to 45° C. under vacuum. […] MTBE (348.2 g) was added, and the solution was washed with 250 mL of 10% NH4Cl solution. The organic solution was then washed an additional 3 times with water (248 mL for each wash). The residual organic solution was concentrated with MTBE (284.4 g) to azeotrope the water. The solution was concentrated to 53±5 g/kg. The final water concentration was 532 ppm. This solution was then seeded with chiral amide MTBE hemisolvate, 0.5 wt. %, and aged for 20 hours at 20-25° C. At this point, heptane was charge in three aliquots over specific periods of time. The first aliquot of heptane (54 mL), was charged in 9 hours. The second aliquot of heptane (90 mL) was charged in 6 hours. The third aliquot of heptane (294 mL) was charged in 3 hours. At the conclusion of the heptane charge, the solution was aged at 20-25° C. for 2 hours. The solution was filtered over a 5 micron fritted filter. A displacement wash was conducted using 164 mL of 5:1 n-heptane/MTBE, and the solids were dried at less than 45° C. under vacuum. The final water concentration was <0.5 wt. % (by KF). The final MTBE concentration was 11-12 wt. % (as a hemisolvate) and the final heptane concentration was <0.5 wt. % (both by GC). The chiral amide/MTBE hemisolvate was isolated in 90% yield, 99.3 LCAP.

C[C@H](NC(=O)C(C)(C)Oc1ccc(C(F)(F)F)cn1)[C@@H](Cc1ccc(Cl)cc1)c1cccc(C(N)=O)c1 [chiral amide, 3-{(1S,2S)-1-(4-chlorobenzyl)-2-[(2-methyl-2-{[5-(trifluoromethyl)pyridine-2-yl]oxy}propanoyl)amino]-propyl}benzamide]
solubility: > 1350 mg/mL
